Consider 31 molecules from PubChem BioAssay (NCI).

The structures appear in SMILES notation.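 Following 48 hours of exposure in 96-well plates, responses at five concentrations were used to interpolate endpoints linearly. TGI denotes the concentration required for complete inhibition of growth.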 *1 amine or outer side, *2 acyl side, *3 side chain or, on linkers, in order; H or OH if unused. Where a SMILES comes first, the peptide text is derived from it. Bridges are numbered along the chain shown (N, C = ends). Roman numbers before positions name the chains, in order. [ ]: non-standard residue; d: D form. The star is where a group is joined. ξ: configuration not given here. X54 = N=C(N)NCCC[C@@H](NC(=N)CCCCCCC(=N)N[C@H](CCCNC(=N)N)C(=O)[*:2])C(=O)[*:1]; dIgl = N[C@@H](C(=O)O)C1Cc2ccccc2C1; Hyp = O=C(O)[C@@H]1C[C@@H](O)CN1; ξIgl = NC(C(=O)O)C1Cc2ccccc2C1; ξOic = O=C(O)C1CC2CCCCC2N1; ξR = N=C(N)NCCCC(N)C(=O)O; Boc = CC(C)(C)OC(=O)*; ξP = O=C(O)C1CCCN1; ξS = NC(CO)C(=O)O

Some test systems named below: KM12 colon; MDA-MB-231 breast; HCC-2998 colon.
Assay in all cases: growth of human tumour cells (NCI), 48 h

With `CC(C)C(Nc1ncnc2nc[nH]c12)C(=O)O` (stereo not drawn), the TGI in the assay on KM12 colon and with MDA-MB-231 breast was greater than 100 µM each time.

Take `COc1ccc(-n2c(SC(CN3CCOCC3)CN3CCCC3=O)nc3ccccc3c2=O)cc1` (stereo not drawn): the TGI in the assay with KM12 colon, in the assay on MDA-MB-231 breast and with HCC-2998 colon was greater than 100 µM in each case.

Regarding `Nn1c(Nc2ccc(S(N)(=O)=O)cc2)nnc(/C=C/c2c(O)ccc3ccccc23)c1=O`, the TGI in the assay with KM12 colon turned out to be 52.2 µM; in the assay with HCC-2998 colon, 51.9 µM.

Consider `O=C1/C(=C/c2ccc(O)cc2)CCCC1CN1CCCCC1` (stereo not drawn), for which the figures for the TGI in the assay on KM12 colon, in the assay on MDA-MB-231 breast and in the assay on HCC-2998 colon were 4.93 µM, 4.43 µM and 17.2 µM, respectively.

Take `Cn1c(-c2ccc[se]2)ccc1-c1ccc(C=O)[se]1`: the values for the TGI in the assay with KM12 colon, in the assay on MDA-MB-231 breast and in the assay on HCC-2998 colon were greater than 100 µM, greater than 100 µM and greater than 53.5 µM, respectively.

With `Cn1cnc(N2CCCC2)c(C#N)c1=S`, the TGI in the assay with KM12 colon, with MDA-MB-231 breast and in the assay with HCC-2998 colon was greater than 100 µM each time.

`Cc1nnc(N)nc1/C=C\c1ccc(Cl)cc1Cl`: the TGI was 32.6 µM in the assay with KM12 colon, greater than 100 µM in the assay on MDA-MB-231 breast and 42.8 µM in the assay on HCC-2998 colon.

Consider `O=c1c2c3c(sc2nc2n1N=CN(c1ccccc1)C2)CCCC3`, for which the TGI with KM12 colon, with MDA-MB-231 breast and in the assay with HCC-2998 colon was greater than 100 µM in each case.

On to `N=C(N)NCCCC(NC(=O)C1CC2CCCCC2N1C(=O)[C@H](NC(=O)C(CO)NC(=O)C(NC(=O)CNC(=O)[C@@H]1C[C@@H](O)CN1C(=O)C1CCCN1C(=O)C(CCCNC(=N)N)NC(=O)[C@@H](CCCNC(=N)N)NC(=N)CCCCCCC(=N)N[C@H](CCCNC(=N)N)C(=O)NC(CCCNC(=N)N)C(=O)N1CCCC1C(=O)N1C[C@H](O)C[C@H]1C(=O)NCC(=O)NC(C(=O)NC(CO)C(=O)N[C@@H](C(=O)N1C(C(=O)NC(CCCNC(=N)N)C(=O)O)CC2CCCCC21)C1Cc2ccccc2C1)C1Cc2ccccc2C1)C1Cc2ccccc2C1)C1Cc2ccccc2C1)C(=O)O` (stereo partly drawn) (I: [ξR][ξP][Hyp]G[ξIgl][ξS][dIgl][ξOic][ξR]-OH / II: [ξR][ξP][Hyp]G[ξIgl][ξS][dIgl][ξOic][ξR]-OH; linker I:N-II:N via X54), for which the TGI in the assay on KM12 colon worked out at 4.13 µM; in the assay with MDA-MB-231 breast, 3.49 µM.

As for `O=C(NC(=S)Nc1ccc([N+](=O)[O-])cc1)c1ccc2c(c1)Sc1ccccc1O2`, the TGI in the assay with KM12 colon and in the assay with MDA-MB-231 breast was greater than 100 µM throughout.

Regarding `Cc1cc2nc3c(C#N)c4c(c(Nc5ccc(F)cc5)n3c2cc1C)CCC4`, the TGI in the assay on KM12 colon and in the assay with MDA-MB-231 breast was greater than 100 µM throughout.

Consider `Fc1ccc(-c2sc(-c3ccsc3)cc2Cc2ccsc2)cc1`, for which the TGI with KM12 colon, in the assay with MDA-MB-231 breast and in the assay with HCC-2998 colon was greater than 10 µM throughout.

As for `CC#C[C@]1(O)CCC2[C@@H]3CCC4=CC(=O)CCC4=C3[C@@H](c3ccc(N(C)C)cc3)C[C@@]21C` (stereo partly drawn), the TGI in the assay with KM12 colon was 65.2 µM; with MDA-MB-231 breast, 35.4 µM.

Turning to `CCn1c2nc(=O)n(CCCCCCCCSC(c3ccccc3)(c3ccccc3)c3ccccc3)c(=O)c-2nc2ccccc21`, the TGI is greater than 100 µM in the assay on KM12 colon, greater than 100 µM in the assay on MDA-MB-231 breast and 19.6 µM in the assay with HCC-2998 colon.

Take `CC(=O)C1=C(C)O[C@@H]2O[C@H](COCc3ccccc3)[C@@H](OCc3ccccc3)[C@H](O)[C@@H]2S1`: the TGI in the assay with KM12 colon stood at 38.1 µM; with MDA-MB-231 breast, 40.1 µM.

For the molecule `Cc1cc2c(c(C(=O)NCC(=O)N[C@@H](C)C(=O)OCc3ccccc3)c1)Oc1c(cc(C)cc1C(=O)NCC(=O)N[C@@H](C)C(=O)OCc1ccccc1)S2`, the TGI in the assay with KM12 colon, in the assay on MDA-MB-231 breast and in the assay on HCC-2998 colon was greater than 100 µM each time.

Regarding `O[C@@H]1C[C@H](Cl)c2c(Cl)sc(Cl)c21`, the TGI in the assay on KM12 colon, in the assay with MDA-MB-231 breast and with HCC-2998 colon was greater than 100 µM each time.

For the molecule `Cn1c(-c2ccc(-c3cc(-c4cccs4)c(-c4cccs4)n3C)cc2)cc(-c2cccs2)c1-c1cccs1`, the TGI in the assay on KM12 colon, in the assay on MDA-MB-231 breast and in the assay with HCC-2998 colon was greater than 100 µM each time.

With `CCOP(=O)(CCCC(O)CNc1nc(N)nc(Cl)c1N=Nc1ccc(Cl)cc1)OCC` (stereo not drawn), the TGI in the assay on KM12 colon was 25 µM; in the assay with MDA-MB-231 breast, 8.6 µM; with HCC-2998 colon it was 30.6 µM.

Take `COc1cc(C2c3cc4c(cc3OC(NNC(N)=O)C2C)OCO4)cc(OC)c1OC` (stereo not drawn): the TGI in the assay on KM12 colon was greater than 100 µM; in the assay with MDA-MB-231 breast it was 7.25 µM; with HCC-2998 colon, greater than 27.2 µM.

With `CN(c1ccccc1)S(=O)(=O)c1ccc([N+](=O)[O-])cc1`, the TGI in the assay with KM12 colon and in the assay with MDA-MB-231 breast was greater than 100 µM in each case.

`COC(=O)C(Cc1ccccc1)NC(=O)C(CS)NC(=O)OC(C)(C)C` (stereo not drawn) (Boc-Cys-Phe-OMe; configuration not given here): the TGI in the assay with KM12 colon, in the assay with MDA-MB-231 breast and in the assay on HCC-2998 colon was greater than 100 µM each time.

For the molecule `O=C1c2ccccc2C(=O)N1n1c(Cc2ccc(Cl)cc2)n[nH]c1=O`, the TGI in the assay on KM12 colon, in the assay with MDA-MB-231 breast and in the assay with HCC-2998 colon was greater than 100 µM each time.

Consider `CNC(=O)N(CCC#N)CCN(C(=O)NC)c1ccccc1`, for which the TGI in the assay with KM12 colon, in the assay with MDA-MB-231 breast and with HCC-2998 colon was greater than 100 µM each time.

On to `COc1cc(C2c3cc4c(cc3OC(NNc3ccccc3)C2C)OCO4)cc(OC)c1OC` (stereo not drawn), for which the TGI in the assay on KM12 colon was 38 µM; in the assay on MDA-MB-231 breast, greater than 63.4 µM; in the assay on HCC-2998 colon, 3.96 µM.

Take `CC(=O)OCC1OC(N2C(=O)NC(=O)C3C=C4CCCCC4=CC32)CC1OC(C)=O` (stereo not drawn): the TGI in the assay with KM12 colon and with MDA-MB-231 breast was greater than 100 µM throughout.

As to `O=c1cc(-c2ccccc2)[nH]c2ncccc12`, the TGI is 15.7 µM with KM12 colon, greater than 26.7 µM with MDA-MB-231 breast and greater than 42 µM in the assay on HCC-2998 colon.

On to `Cc1c(Cc2ccccc2)n(C(C)OCCN(OC(=O)Oc2ccccc2)C(=O)Oc2ccccc2)c(=O)[nH]c1=O` (stereo not drawn), for which the TGI came out at 29.9 µM in the assay on KM12 colon, 38.5 µM in the assay on MDA-MB-231 breast and 31.5 µM with HCC-2998 colon.

With `C/C=C1/CN2CCC34c5ccccc5N(C)C23C2CC1C4(C(=O)OC)C(OC(C)=O)O2` (stereo not drawn), the TGI with KM12 colon, with MDA-MB-231 breast and in the assay on HCC-2998 colon was greater than 100 µM in each case.

For `COc1ccccc1NC(=S)N=Nc1c(O)[nH]c2ccccc12`, the TGI with KM12 colon, in the assay on MDA-MB-231 breast and in the assay on HCC-2998 colon was greater than 100 µM each time.

As to `Cc1ccc(Cc2cc(N3CCN(c4cccc(Cl)c4)CC3)nnc2C)cc1`, the TGI with KM12 colon and in the assay with MDA-MB-231 breast was greater than 100 µM in each case.
